The text below walks through data of paper PMC8053989 (Proceedings of the National Academy of Sciences of the …, 2021).

Where two headings read alike, the source gives them in different places.

Series [1] deals with SARS-CoV-2 replicon. The experiment in a line: microbe, parasite or virus in culture. It is filed as cell-based.
For series [2], the system named is SARS-CoV-2 replicon. The experiment in a line: microbe, parasite or virus in culture. It is filed as cell-based. The following applies: for effect of p-gp inhibitors on potency: in the presence of CP-100356 or elacridar.
The test system of series [3] is SARS-CoV-2 replicon. The experiment in a line: microbe, parasite or virus in culture. It is filed as cell-based. Conditions: Calu-1 cells, compound alone.
Series [4] concerns SARS-CoV-2 replicon. In words: microbe, parasite or virus in culture. It is filed as cell-based. The following applies: A549 cells, compound alone.
Series [5] deals with SARS-CoV-2 replicon. In words: microbe, parasite or virus in culture. It is filed as cell-based. The following applies: Huh-7.5 cells.
The next series deals with 293T cells. The experiment in a line: Cytotoxicity assay (CellTiter-Glo) in replicon-transfected cells. Conditions: range of concentrations tested. In general terms: ATP-based viability assays read luminescence as a measure of living cells.
Series [6] deals with wild-type (wt) SARS-CoV-2. More on the design: method as in doi:10.1101/2020.08.28.272880. The following applies: ACE2 stably transfected A549 cells; read-out: EC50 against wild-type SARS-CoV-2 infection; cited from earlier work.
Series [7] deals with SARS-CoV-2 replicon. It is filed as cell-based. The following applies: concentrations up to 2 µM.
[8] abbreviates: Severe acute respiratory syndrome coronavirus 2, HEK-293T, 30 h, read-out: EC50.
[9] abbreviates: Severe acute respiratory syndrome coronavirus 2.
[10] abbreviates: Severe acute respiratory syndrome coronavirus 2, Vero cells, compound alone.
Setting [11] is: Severe acute respiratory syndrome coronavirus 2, Huh7.5.

Regarding `N=C(N)c1ccc2cc(OC(=O)c3ccc(N=C(N)N)cc3)ccc2c1` [Nafamostat], the EC50 with SARS-CoV-2 replicon [1] (setting [8]) is > 42000 nM; in the series with SARS-CoV-2 replicon [2] (Severe acute respiratory syndrome coronavirus 2, Vero C1008, Vero E6 cells (so in the source)), > 42000 nM; with SARS-CoV-2 replicon [3] (setting [9]), > 42000 nM; in the series with SARS-CoV-2 replicon [4] (setting [9]), > 42000 nM.

Turning to `COc1cccc2[nH]c(C(=O)N[C@@H](CC(C)C)C(=O)N[C@@H](C[C@@H]3CCNC3=O)C(=O)CO)cc12` [PF-00835231], the EC50 in the series on SARS-CoV-2 replicon [1] (read-out: EC50) is 75.2 ± 19.1 nM; in the series with SARS-CoV-2 replicon [2] (Vero cells, compound alone), 2190 nM; with SARS-CoV-2 replicon [5], 175 ± 56 nM; in the series with SARS-CoV-2 replicon [3] it was 24.7 ± 3.8 nM; in the series on SARS-CoV-2 replicon [4] it was 76.3 ± 16.2 nM. The “effect of p-gp inhibitors on potency” value in the series on SARS-CoV-2 replicon [2] (Vero cells) is recorded as “dramatically increased the potency”.

Take `N#C[C@@]1(c2ccc3c(N)ncnn23)O[C@H](CO)[C@@H](O)[C@H]1O` [GS-441524]: the EC50 in the series with SARS-CoV-2 replicon [1] (setting [8]) turned out to be 603 ± 131 nM; in the series with SARS-CoV-2 replicon [1] (Severe acute respiratory syndrome coronavirus 2, HEK-293T, 30 h, read-out: potency (EC50) in inhibiting SARS-CoV-2 replicon replication, percent GFP signal), 645 nM; with SARS-CoV-2 replicon [1] (Severe acute respiratory syndrome coronavirus 2, HEK-293T, 30 h, read-out: potency (EC50) in inhibiting SARS-CoV-2 replicon replication, percent luciferase activity), 503 nM; in the series on SARS-CoV-2 replicon [2] (setting [10]), 302 ± 20 nM; in the series on SARS-CoV-2 replicon [5] (setting [11]), 1030 nM; in the series on SARS-CoV-2 replicon [3] (setting [9]), 1330 nM. In the series on SARS-CoV-2 replicon [4] (setting [9]), this compound displayed an EC50 of 1470 nM. Moreover, the cytotoxicity result in the series on 293T cells is “No cytotoxicity was detected”.

Consider `CC(C)C[C@H](NC(=O)OCc1ccccc1)C(=O)N[C@@H](CC1CCNC1=O)C(O)S(=O)(=O)O` (stereo partly drawn) [GC376], for which the concentration giving a half-maximal response (EC50) stood at 20.8 ± 5.4 nM in the series on SARS-CoV-2 replicon [1] (read-out: EC50); 22 nM in the series on SARS-CoV-2 replicon [1] (read-out: potency (EC50) in inhibiting SARS-CoV-2 replicon replication, percent GFP signal); 29.2 nM with SARS-CoV-2 replicon [1] (read-out: potency (EC50) in inhibiting SARS-CoV-2 replicon replication, percent luciferase activity); 237 ± 74 nM with SARS-CoV-2 replicon [2] (Vero cells, compound alone); 19.4 ± 4.9 nM in the series with SARS-CoV-2 replicon [5]; 19.8 ± 2 nM with SARS-CoV-2 replicon [3]. This compound gave an EC50 in the series on SARS-CoV-2 replicon [4] of 570 ± 182 nM.

`CC(C)C[C@H](NC(=O)c1cc2ccccc2o1)C(=O)N[C@H]1CC[C@@H](C)N(S(=O)(=O)c2ccccn2)CC1=O` [Relacatib]: the EC50 with SARS-CoV-2 replicon [1] (setting [8]), in the series on SARS-CoV-2 replicon [2] (setting [10]), in the series with SARS-CoV-2 replicon [3] (setting [9]) and with SARS-CoV-2 replicon [4] (setting [9]) was > 42000 nM in each case.

`CC(C)(C)NC(=O)N[C@H](C(=O)N1C[C@H]2[C@@H]([C@H]1C(=O)NC(CC1CCC1)C(=O)C(N)=O)C2(C)C)C(C)(C)C` (stereo partly drawn) [MK-3034]: the EC50 stood at 3550 nM in the series on SARS-CoV-2 replicon [1] (setting [8]), 16600 nM in the series with SARS-CoV-2 replicon [2] (setting [10]), 4790 nM in the series on SARS-CoV-2 replicon [3] (setting [9]) and 19900 nM in the series with SARS-CoV-2 replicon [4] (setting [9]). In addition, the “effect of p-gp inhibitors on potency” value in the series on SARS-CoV-2 replicon [2] (Vero cells) is recorded as “slight increase of the activities”.

As to `CCC(CC)COC(=O)[C@H](C)N[P@](=O)(OC[C@H]1O[C@@](C#N)(c2ccc3c(N)ncnn23)[C@H](O)[C@@H]1O)Oc1ccccc1` [GS-5734], the EC50 in the series on SARS-CoV-2 replicon [1] (setting [8]) is 15.6 ± 5.1 nM; in the series on SARS-CoV-2 replicon [2] (setting [10]), 2240 nM; in the series with SARS-CoV-2 replicon [5] (setting [11]) it was 18.9 nM; in the series with SARS-CoV-2 replicon [3] (setting [9]), 31.5 ± 23 nM; in the series on SARS-CoV-2 replicon [4] (setting [9]), 184 nM; in series [6] it was 442 nM.

Consider `CC(C)C[C@H](NC(=O)OCc1ccccc1)C(=O)N[C@H](C=O)C[C@@H]1CCNC1=O` [GC373], for which the EC50 in the series with SARS-CoV-2 replicon [1] (read-out: EC50) turned out to be 20.3 ± 5.3 nM; in the series on SARS-CoV-2 replicon [2] (Vero cells, compound alone) it was 309 ± 43 nM; in the series with SARS-CoV-2 replicon [3] it was 30.1 ± 5.8 nM; in the series on SARS-CoV-2 replicon [4], 539 ± 69 nM. Also, the “effect of p-gp inhibitors on potency” value in the series with SARS-CoV-2 replicon [2] (Vero cells) is “slight increase of the activities”.

In the case of `CC(C)C[C@H](NC(=O)OCc1ccccc1)C(=O)N[C@@H](C[C@@H]1CCNC1=O)C(O)S(=O)(=O)[O-].[Na+]` (stereo partly drawn) [GC376], in the series with SARS-CoV-2 replicon [2] (Vero cells), the “effect of p-gp inhibitors on potency” value is on record as “slight increase of the activities”. In the series on 293T cells, the cytotoxicity result is “No cytotoxicity was detected”.

`Cc1cccc(/C=N/Nc2cc(N3CCOCC3)nc(OCCc3ccccn3)n2)c1` [Apilimod]: the EC50 with SARS-CoV-2 replicon [5] (setting [11]) and in the series on SARS-CoV-2 replicon [3] (setting [9]) was > 42000 nM in each case.

Regarding `COc1cc2c(cc1OC)CN(CCc1ccc(NC(=O)c3cccc4c(=O)c5cccc(OC)c5[nH]c34)cc1)CC2` [Elacridar], the 50% effective concentration (EC50) in the series on SARS-CoV-2 replicon [2] (setting [10]) is > 4670 nM; in the series with SARS-CoV-2 replicon [3] (setting [9]), > 8400 nM; in the series on SARS-CoV-2 replicon [4] (setting [9]) it was > 4670 nM. Further, the “antiviral activity when tested alone” value in the series on SARS-CoV-2 replicon [7] is “No antiviral activities were observed”.

Regarding `CN(C)C(=O)COC(=O)Cc1ccc(OC(=O)c2ccc(NC(=N)N)cc2)cc1` [Camostat], the EC50 in the series on SARS-CoV-2 replicon [1] (setting [8]), with SARS-CoV-2 replicon [2] (setting [10]), with SARS-CoV-2 replicon [3] (setting [9]) and in the series on SARS-CoV-2 replicon [4] (setting [9]) was > 42000 nM each time.

As a reminder, the EC50 is the concentration giving half of the maximal effect.
